Assay in all cases: NCI tumour cell line growth inhibition, 48 h
In test [1] the test system is LXFL 529.
The subject of test [2] is KM-20L2.
The subject of test [3] is XF498.
The test system of test [4] is DMS-114.
Test [5] concerns DLD-1.
Test [6] has as its system HOP-18.
Test [7] concerns SNB-78.
Test [8] relates to M19-MEL.
For test [9], the system named is RXF 631.

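Briefly, cells in 96-well plates were exposed to five compound concentrations for 48 h, and endpoints were estimated by linear interpolation. Here, GI50 denotes the concentration required for 50% inhibition of growth.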 Calls of active or inactive are those of the source. Rule as the data show it: active = GI50 up to about 1.1 µM and inactive = higher.

In the case of `CCOCN/C(N)=N\C#N`, the GI50 in test [1] was > 100 µM (inactive); in test [2], 89.1 µM (inactive); in test [3], > 100 µM (inactive); in test [4], > 100 µM (inactive); in test [5], > 100 µM (inactive); in test [6] it was > 100 µM (inactive). Also, the GI50 in [7] and in [8] was > 100 µM (inactive) in each case.

Consider `O=C(CCc1nnc2s/c(=C\c3ccc4c(c3)OCO4)c(=O)n12)Nc1cc(Cl)ccc1Cl`, for which the GI50 in test [1], in [2], in [3], in test [9], in test [4] and in test [5] was > 100 µM (inactive) throughout. Besides, the GI50 in [6], in test [7] and in [8] was > 100 µM (inactive) each time.

For `O=C1c2cc(CCl)sc2C(=O)c2ccsc21`, the GI50 is 0.243 µM (active) in [1]; 1.45 µM (inactive) in [2]; 1.73 µM (inactive) in [3]; 0.163 µM (active) in test [4]; 0.933 µM (active) in test [5]; 0.264 µM (active) in test [6]. Besides, the GI50 in test [7] is 0.292 µM (active); in test [8], < 0.01 µM (active).

Turning to `O=S1(=O)OCCOS(=O)(=O)C1(I)I`, the GI50 in test [1] was 11 µM (inactive); in test [3], 18 µM (inactive); in test [4], 18 µM (inactive); in [5], 16.9 µM (inactive); in test [7] it was 23.2 µM (inactive); in test [8], 17.7 µM (inactive).

With `C#CC1(O)CCC2[C@@H]3CCc4cc(Oc5nc(F)nc(-c6c7ccccc7cn6C)n5)ccc4C3CC[C@@]21C` (stereo not given in full), the GI50 in [1] was > 100 µM (inactive); in test [2], > 100 µM (inactive); in test [3], > 100 µM (inactive); in [4] it was 35.8 µM (inactive); in test [5] it was > 48.2 µM (inactive); in test [6] it was > 100 µM (inactive). The GI50 in test [7] and in test [8] was > 100 µM (inactive) each time.

For `N=C(N)Nc1nc2cc(N)ccc2o1`, the GI50 in test [2], in test [9], in test [5], in test [6], in test [7] and in [8] was > 100 µM (inactive) throughout.

As to `C=C1C(=O)C23C(O)C1CCC2C12CO[C@]3(O)[C@@H](O)C1C(C)(C)CCC2O` (stereo not given in full), the GI50 is 2.11 µM (inactive) in test [1]; 16.1 µM (inactive) in test [2]; 2.44 µM (inactive) in test [3]; 13.7 µM (inactive) in [9]; 5.82 µM (inactive) in test [4]; 15.3 µM (inactive) in test [5]. For the same compound, the results for the GI50 in [6], in test [7] and in test [8] were 11.7 µM (inactive), 6.55 µM (inactive) and 10.7 µM (inactive), respectively.

On to `CCC1(N=[N+]=[N-])C(=O)Nc2cc(C)ccc2C1=O` (stereo not given), for which the GI50 in test [1] is 38 µM (inactive); in test [2], > 100 µM (inactive); in [4], 38.1 µM (inactive); in test [5] it was > 100 µM (inactive); in test [6], 32.6 µM (inactive); in test [7] it was 86.1 µM (inactive). In addition, the GI50 in test [8] was 60.3 µM (inactive).

Turning to `CCCC/C=C1\CCC(CN2CCCC2)C1=O` (stereo not given), the GI50 in [1] was 1.56 µM (inactive); in [2], 14.7 µM (inactive); in test [3], 16.1 µM (inactive); in test [9] it was 17.7 µM (inactive); in [4], 15.9 µM (inactive); in [5], 3.76 µM (inactive). Moreover, the GI50 in test [7] was 26.4 µM (inactive); in test [8], 16.9 µM (inactive).

As for `CC(C)(C)c1cc(C(O)(C(F)(F)F)C(F)(F)F)c2c(c1)C(C(F)(F)F)(C(F)(F)F)OC(c1ccccc1)(C(C)(C)C)N2` (stereo not given), the GI50 in test [1] is 3.28 µM (inactive); in [2] it was 4.92 µM (inactive); in test [3], 3.6 µM (inactive); in test [4], 2.82 µM (inactive); in [5], 3.76 µM (inactive); in test [6] it was 0.515 µM (active). Further, the GI50 in [7] was 8.28 µM (inactive); in test [8], 3.56 µM (inactive).

Take `CNC(=O)C(C)Oc1ccc(OCC2CCCCC2)cc1` (stereo not given): the GI50 in test [1] is 77.4 µM (inactive); in test [4], 59.7 µM (inactive); in test [5], > 100 µM (inactive); in test [6] it was 16.3 µM (inactive); in [7], > 100 µM (inactive); in test [8] it was > 100 µM (inactive).

As for `NC1=Nc2ccccc2Sc2ccccc21`, the GI50 is > 100 µM (inactive) in test [2]; 52.1 µM (inactive) in test [3]; > 100 µM (inactive) in [4]; > 100 µM (inactive) in [5]; 0.912 µM (active) in test [6]; > 100 µM (inactive) in test [7]. The GI50 in test [8] is > 100 µM (inactive).

On to `CC(C)(C)S(=O)OC12CC3CC(CC(C3)C1)C2` (stereo not given), for which the GI50 in test [1], in [2], in test [3], in [4], in test [7] and in test [8] was > 100 µM (inactive) in each case.

As for `CS(=O)(=O)OCCN(CCOS(C)(=O)=O)c1ccc(/C=N/N=c2/nc[nH]c3nc[nH]c23)cc1`, the GI50 was 21.5 µM (inactive) in [2]; 21.2 µM (inactive) in [3]; 10.9 µM (inactive) in test [4]; 26.8 µM (inactive) in test [5]; 34.6 µM (inactive) in test [6]; 24.2 µM (inactive) in [7]. Also, in test [8], the GI50 is 20.5 µM (inactive).

As for `CNC(=O)NCCCCC(NC(=O)OCc1ccccc1)C(=O)OCc1ccccc1` (stereo not given), the GI50 in test [1] was 32.1 µM (inactive); in test [2], > 100 µM (inactive); in [3] it was 18.3 µM (inactive); in [9], 23.6 µM (inactive); in [4] it was 23.6 µM (inactive); in test [5], 38.2 µM (inactive). Moreover, the GI50 in [7] is 25.4 µM (inactive); in test [8], 21.8 µM (inactive).

For the compound `CCCN1CN(C(C(=O)N[C@@H]2C(=O)N3C(C(=O)O)=C(C)CSC23)c2ccc(O)cc2)CSC1=S` (stereo not given in full), the GI50 in [1] is > 100 µM (inactive); in test [2], > 100 µM (inactive); in [3], > 100 µM (inactive); in test [4] it was 52.4 µM (inactive); in test [5], > 100 µM (inactive); in test [6] it was > 100 µM (inactive). Moreover, the GI50 in test [7] and in test [8] was > 100 µM (inactive) throughout.

Regarding `CN1CCN(C)C1c1cccc(C2N(C)CCN2C)c1`, the GI50 in test [1], in test [2], in [9], in test [4], in test [5] and in test [7] was > 100 µM (inactive) in each case. In addition, the GI50 in test [8] was > 100 µM (inactive).

Consider `CC(=O)Nc1c(C)ccc2c1C(=O)c1ccccc1C2=O`, for which the GI50 in test [1] was > 100 µM (inactive); in test [4], 35.2 µM (inactive); in [5], > 100 µM (inactive); in test [6] it was > 100 µM (inactive); in [7], > 100 µM (inactive); in test [8] it was > 100 µM (inactive).

Turning to `CC/C(=N/O)C(C)C(=O)CCC(=O)Nc1ccc(Cl)cc1` (stereo not given), the GI50 was 54.3 µM (inactive) in test [1]; > 100 µM (inactive) in test [2]; > 100 µM (inactive) in test [3]; > 100 µM (inactive) in test [4]; > 100 µM (inactive) in test [5]; > 100 µM (inactive) in test [6]. The GI50 in test [7] and in test [8] was > 100 µM (inactive) in each case.

Consider `COc1ccc(/C(=N/Nc2ccccc2)C(c2ccc(OC)cc2)C2OC(=O)c3ccccc32)cc1` (stereo not given), for which the GI50 in test [2] is 36.6 µM (inactive); in [3], > 100 µM (inactive); in test [9] it was > 100 µM (inactive); in test [4] it was 50 µM (inactive); in test [5], > 10 µM (inactive).

Turning to `CCOC(=O)C(NC(=O)c1ccc(/N=N/N(C)C)cc1)C(C)C` (stereo not given), the GI50 in [1], in test [4] and in test [5] was > 100 µM (inactive) in each case.

In the case of `COc1cccc2c1[C@]1(O)C(O)CCCC21` (stereo not given in full), the GI50 in [1] is > 100 µM (inactive); in test [2] it was > 100 µM (inactive); in [4], > 100 µM (inactive); in [5], > 100 µM (inactive); in [6], 90.4 µM (inactive); in test [7], > 100 µM (inactive). For the same compound, in test [8], the GI50 was > 100 µM (inactive).

As for `CCOC(=O)c1cc(OC(=O)CC)c2c(OC)ccc(OC)c2c1`, the GI50 in test [1] was 37.8 µM (inactive); in [2], > 10 µM (inactive); in [3] it was > 100 µM (inactive); in test [4], 45 µM (inactive); in test [5], > 100 µM (inactive); in [6] it was > 100 µM (inactive). Also, the GI50 in test [8] was 67.6 µM (inactive).

For the compound `CN1N=CSC12C(=O)N(c1ccc(Cl)cc1)C(=O)N2c1ccc(Cl)cc1` (stereo not given), the GI50 in test [1] was 3.34 µM (inactive); in test [2], 3.21 µM (inactive); in test [4], 1.87 µM (inactive); in test [5], 4.06 µM (inactive); in test [6], 3.43 µM (inactive); in test [7], 3.98 µM (inactive). In addition, the GI50 in [8] is 3.37 µM (inactive).

As to `CN(C)c1ccc(/C=C(\NC(=O)c2ccccc2)c2nc3cncnc3[nH]2)cc1`, the GI50 in [1], in test [2], in [3], in test [9], in test [4] and in test [5] was > 100 µM (inactive) in each case. In addition, the GI50 in [7] and in [8] was > 100 µM (inactive) throughout.

With `Cn1cc2ccccc2c1-c1nc(N)nc(F)n1`, the GI50 is > 100 µM (inactive) in test [1]; > 100 µM (inactive) in test [2]; > 100 µM (inactive) in test [3]; > 100 µM (inactive) in test [9]; 85.3 µM (inactive) in test [4]; > 100 µM (inactive) in test [5]. In addition, the GI50 was > 100 µM (inactive) in test [7] and 54.3 µM (inactive) in test [8].

The record behind these values is ChEMBL document CHEMBL1201862, “PubChem BioAssay data set” (2004).
